Series [1] concerns Mycobacterium tuberculosis. Briefly: Antitubercular activity against Mycobacterium tuberculosis H37Rv assessed as reduction in microbial growth under aerobic condition by luminescence analysis. Format: functional.
Series [2] relates to Mycobacterium tuberculosis. Briefly: Antitubercular activity against Mycobacterium tuberculosis H37Rv assessed as reduction in microbial growth under anaerobic condition by luminescence analysis. Format: functional.
The next series deals with Leishmania donovani. The experiment in a line: Antileishmanial activity against Leishmania donovani amastigotes infected in mouse J774A.1 cells incubated for 72 hrs by luciferase assay. Format: functional, organism-based. The note with it: J774.A1, 72 h.
The next series concerns Trypanosoma cruzi. Briefly: Antitrypanosomal activity against Trypanosoma cruzi Tulahuen CL2 infected in human MRC-5 cells assessed as parasite growth. The conditions noted are these: Tulahuen CL2, MRC5. Format: functional, organism-based.
The next series relates to Leishmania infantum. Briefly: Antileishmanial activity against Leishmania infantum MHOM/MA(BE)/67 amastigotes infected in macrophages assessed as reduction in parasite burden by giemsa staining based microscopic analysis. Format: functional, organism-based.
The next series relates to MRC5. The experiment in a line: Cytotoxicity against human MRC5 cells assessed as cell viability after 72 hrs by fluorimetric analysis. The note with it: MRC5, 72 h. Format: ADME, cell-based.
A short description of series [3]: Selectivity index, ratio IC50 for cytotoxicity against human MRC5 cells to IC50 for antileishmanial activity against Leishmania infantum MHOM/MA(BE)/67 amastigotes infected in macrophages.

We go through 15 molecules from ChEMBL document CHEMBL5036301, “Heteroaryl ether analogues of an antileishmanial 7-substituted 2-nitroimidazooxazine lead afford attenuated hERG risk: In vitro and in vivo appraisal” (Eur J Med Chem, 2021).

A value given as a limit tells only on which side of the number the result lay.

A word on the MIC: it is the lowest concentration that inhibits growth of the organism. The term IC50 denotes the concentration that inhibits the measured activity by half. Take `O=[N+]([O-])c1cn2c(n1)OC(COc1ccc(OC(F)(F)F)cc1)CC2` (centres undefined): the minimum inhibitory concentration (MIC) is 5.2 µM in series [1] and 4.7 µM in series [2]. In addition, the values for the concentration for half-maximal inhibition (IC50) in the series with Leishmania donovani and in the series on Trypanosoma cruzi were 0.04 µM and 0.061 µM, respectively.
Take `CC1(COc2ccc(Cl)cc2)CCn2cc([N+](=O)[O-])nc2O1` (centres undefined): the IC50 in the series with Leishmania infantum was 0.13 µM; with MRC5, above 64 µM; in the series on Leishmania donovani, 0.05 µM; in the series on Trypanosoma cruzi, 0.18 µM. The minimum inhibitory concentration (MIC) in series [1] was 0.86 µM; in series [2], 7 µM. Further, the selectivity ratio in series [3] is above 492.
On to `CC1(COc2ccc(F)cc2)CCn2cc([N+](=O)[O-])nc2O1` (centres undefined), for which the IC50 was 0.45 µM in the series on Leishmania infantum, above 64 µM in the series with MRC5, 0.29 µM in the series with Leishmania donovani and 0.45 µM in the series on Trypanosoma cruzi. Moreover, the figures for the minimum inhibitory concentration (MIC) in series [1] and in series [2] were 1.3 µM and 5 µM, respectively. For the same molecule, in series [3], the selectivity ratio is above 142.
For `CC1(COc2ncc(F)cn2)CCn2cc([N+](=O)[O-])nc2O1` (centres undefined), the IC50 with Leishmania infantum is above 64 µM; in the series on MRC5, above 64 µM; in the series on Leishmania donovani, 0.67 µM; with Trypanosoma cruzi, 14 µM.
On to `O=[N+]([O-])c1cn2c(n1)OC(COc1cccc(C(F)(F)F)n1)CC2` (centres undefined), for which the IC50 is above 64 µM with Leishmania infantum, above 64 µM with MRC5 and 0.53 µM in the series on Trypanosoma cruzi.
Take `O=[N+]([O-])c1cn2c(n1)OC(COc1ncc(C(F)(F)F)cn1)CC2` (centres undefined): the 50% inhibitory concentration (IC50) is above 64 µM with Leishmania infantum, above 64 µM in the series on MRC5 and 3.3 µM in the series on Trypanosoma cruzi.
As for `CC1(COc2ccc(F)nc2)CCn2cc([N+](=O)[O-])nc2O1` (centres undefined), the IC50 in the series on Leishmania infantum was 7.1 µM; with MRC5, above 64 µM; in the series with Leishmania donovani, 0.6 µM; in the series on Trypanosoma cruzi, 4.3 µM. For the same molecule, the selectivity ratio in series [3] is above 9.
Consider `CC1(COc2cc(C(F)(F)F)ccn2)CCn2cc([N+](=O)[O-])nc2O1` (centres undefined), for which the IC50 was 0.45 µM in the series on Leishmania infantum, above 64 µM in the series with MRC5 and 0.86 µM with Trypanosoma cruzi. Further, the selectivity ratio in series [3] was above 142.
On to `CC1(COc2ccc(C(F)(F)F)cc2)CCn2cc([N+](=O)[O-])nc2O1` (centres undefined), for which the IC50 with Leishmania infantum was 0.16 µM; in the series with MRC5, above 64 µM; in the series on Leishmania donovani, 0.16 µM; with Trypanosoma cruzi, 0.15 µM. The MIC in series [1] worked out at 0.8 µM; in series [2], 4.1 µM. Further, the selectivity ratio in series [3] was above 400.
Turning to `CC1(COc2ccc(Oc3ccccc3)cc2)CCn2cc([N+](=O)[O-])nc2O1` (centres undefined), the IC50 was 0.17 µM in the series with Leishmania infantum, above 64 µM with MRC5, 0.17 µM in the series with Leishmania donovani and 0.25 µM in the series on Trypanosoma cruzi. Further, the minimal inhibitory concentration (MIC) was determined as 0.7 µM in series [1] and 2.7 µM in series [2]. Also, the selectivity ratio in series [3] is above 376.
`O=[N+]([O-])c1cn2c(n1)OC(COc1cc(C(F)(F)F)ccn1)CC2` (centres undefined): the concentration for half-maximal inhibition (IC50) with Leishmania infantum is above 64 µM; with MRC5, above 64 µM; in the series with Trypanosoma cruzi, 1 µM.
Turning to `CC1(COc2ccc(F)cn2)CCn2cc([N+](=O)[O-])nc2O1` (centres undefined), the IC50 with Leishmania infantum was 1.6 µM; in the series on MRC5 it was above 64 µM; in the series with Leishmania donovani, 0.26 µM; with Trypanosoma cruzi it was 3.3 µM. In addition, the minimum inhibitory concentration (MIC) in series [1] amounted to 2.3 µM; in series [2], 19 µM. Also, the selectivity ratio in series [3] was above 40.
On to `CC1(COc2cccc(C(F)(F)F)n2)CCn2cc([N+](=O)[O-])nc2O1` (centres undefined), for which the 50% inhibitory concentration (IC50) in the series with Leishmania infantum was 0.58 µM; in the series on MRC5, above 64 µM; in the series on Trypanosoma cruzi, 0.44 µM. Moreover, the selectivity ratio in series [3] was above 110.
In the case of `CC1(COc2ccc(Cl)nc2)CCn2cc([N+](=O)[O-])nc2O1` (centres undefined), the half-maximal inhibitory concentration (IC50) was 2.8 µM in the series on Leishmania infantum, above 64 µM in the series on MRC5, 0.86 µM in the series on Leishmania donovani and 0.93 µM in the series with Trypanosoma cruzi. Besides, the selectivity ratio in series [3] is above 23.
With `CC1(COc2ncc(Cl)cn2)CCn2cc([N+](=O)[O-])nc2O1` (centres undefined), the 50% inhibitory concentration (IC50) in the series with Leishmania infantum is above 64 µM; with MRC5, above 64 µM; with Leishmania donovani, 0.32 µM; in the series with Trypanosoma cruzi it was 3.7 µM.
